Assay results published in EP0126580B1 (priority 1983, dated 1984).

Conditions: rat, in vivo

C[n+]1ccccc1/C=N/O [2-PAMCl, 2-pralidoxime chloride]
lethality: fatal to all rats
time in which the blood concentration drops below therapeutic level (TL): 2 to 3 h
time therapeutic plasma drug level maintained: 2-1/4 hours
time to death after injection: ≤ 30 min
blood drug level achieved (im): 20 µg/mL
